Data as given in ChEMBL document CHEMBL6134901 (J Med Chem, 2025).

test system: Clostridioides difficile; experiment: Antibacterial activity against Clostridium difficile ATTC43255 assessed as spore germination inhibition at 45 uM incubated for 60 mins by spectrometry relative to control; format: functional; conditions: ATTC43255, 1 h

| Structure (SMILES) | inhibition at 45 µM [%] |
| --- | --- |
| Cc1c(Cl)c(C)[n+]([O-])c(Cl)c1-c1noc(-c2cc(O)c(O)c([N+](=O)[O-])c2)n1 [OPICAPONE] | < 10 |
| Clc1c[nH]nc1-c1nc(-c2ccc(OC3CCCC3)cc2)no1 | < 10 |
| CCCCOc1ccc(-c2noc(-c3ccc(CN)cc3)n2)cc1 | 32 |
| Oc1ccc(-c2nc(-c3ccc(Oc4ccc(C(F)(F)F)cc4)nc3)no2)cc1 | < 10 |
| CC(C)(C)OC(=O)NCc1ccc(-c2nc(-c3ccc(Oc4ccc(F)c(F)c4)cc3)no2)cc1 | < 10 |
| Oc1ccc(-c2nc(-c3ccc(Oc4ccccc4CBr)cc3)no2)cc1 | 27 |
| N[C@H]1CC[C@H](Oc2ccc(-c3noc(-c4ccc(O)cc4)n3)cc2)CC1 | < 10 |
| Oc1ccc(-c2nc(-c3ccc(Oc4ccc(C(F)(F)F)cc4)cc3)no2)cc1F | 14 |
| Oc1ccc(-c2nc(-c3ccc(Oc4ccc(I)cc4)cc3)no2)cc1 | 39 |
| O=C(Nc1c[nH]nc1-c1nc(-c2ccc(Oc3ccc(C(F)(F)F)cc3)cc2)no1)c1ccccc1 | < 10 |
| Oc1ccc(-c2noc(-c3ccc(O)cc3)n2)cc1 | < 10 |
| NCCCCc1nc(-c2ccc(OC3CCCC3)cc2)no1 | < 10 |
| CS(=O)(=O)Nc1ccc(Cc2noc(-c3ccc4[nH]cc(CCN)c4c3)n2)cc1 [L-694247] | < 10 |
| c1cc(-c2noc(-c3ccc4c(c3)CCN4)n2)ccc1OC1CCCC1 | < 10 |
| CCCCNc1c[nH]nc1-c1nc(-c2ccc(Oc3ccc(C(F)(F)F)cc3)cc2)no1 | < 10 |
| O=Cc1ccc(-c2noc(-c3ccc(O)cc3)n2)cc1 | < 10 |
| CCCOc1ccc(-c2noc(-c3ccc(O)cc3)n2)cc1 | < 10 |
| FC(F)(F)c1ccc(Oc2ccc(-c3noc(-c4n[nH]cc4Cl)n3)cc2)cc1 | < 10 |
| NCCCOc1ccc(-c2noc(-c3ccc(O)cc3)n2)cc1 | < 10 |
| Oc1ccc(-c2nc(-c3ccc(OC4CC4)cc3)no2)cc1 | < 10 |
| COc1ccc(-c2noc(-c3ccc(CN)cc3)n2)cc1 | < 10 |
| Oc1ccc(-c2nc(-c3ccc(N4CCOCC4)cc3)no2)cc1 | < 10 |
| CCN(CC)CCc1nc(-c2ccccc2)no1 | < 10 |
| Oc1ccc(-c2nc(-c3ccc(Oc4ccc(C(F)(F)F)cc4)cc3)no2)cc1 | 14 |
| CC(C)(C)OC(=O)NCc1ccc(-c2nc(-c3ccc(Oc4ccc(C(F)(F)F)cc4)cc3)no2)cc1 | < 10 |

| Structure (SMILES) | inhibition at 45 µM [%] |
| --- | --- |
| CC(C)Oc1ncc(-c2nc(-c3cccc4c3ccn4CCCC(=O)O)no2)cc1Cl [GSK-2018682] | < 10 |
| O=[N+]([O-])c1ccc(-c2nc(-c3ccc(OC4CCCC4)cc3)no2)cc1 | < 10 |
| Oc1ccc(-c2nc(-c3ccc(C(O)C(F)(F)F)cc3)no2)cc1 (stereo not given) | < 10 |
| c1cc2cc(-c3nc(-c4ccc(OC5CCCC5)cc4)no3)ccc2[nH]1 | < 10 |
| CS(=O)(=O)Nc1ccc(-c2nc(-c3ccc(OC4CCCC4)cc3)no2)cc1 | < 10 |
| CC(C)(C)OC(=O)N1CCC(Nc2c[nH]nc2-c2nc(-c3ccc(Oc4ccc(C(F)(F)F)cc4)cc3)no2)CC1 | < 10 |
| CC(C)(C)Oc1ccc(-c2noc(-c3ccc(O)cc3)n2)cc1 | < 10 |
| CCOc1ccc(-c2nc(-c3cccc4c3CCC4NCCO)no2)cc1OCC (stereo not given) | < 10 |
| COc1ccc(-c2nc(-c3ccc(Oc4ccc(C(F)(F)F)cc4)cc3)no2)cc1[N+](=O)[O-] | < 10 |
| NCCc1ccc(Oc2cc(-c3noc(-c4ccc(CN)cc4)n3)ccn2)cc1 | 27 |
| Oc1ccc(-c2nc(-c3ccc(Oc4ccc(C(F)(F)F)cc4)cc3)no2)cc1O | < 10 |
| CNCc1ccc(-c2nc(-c3ccc(OC4CCCC4)cc3)no2)cc1 | 37 |
| NCc1ccc(-c2nc(-c3ccc(OC(F)F)cc3)no2)cc1 | < 10 |
| FC(F)(F)c1ccc(Oc2ccc(-c3noc(-c4nc[nH]n4)n3)cc2)cc1 | < 10 |
| Oc1ccc(-c2nc(-c3ccc(Oc4cccc(I)c4)cc3)no2)cc1 | 37 |
| O=[N+]([O-])c1cc(-c2nc(-c3ccc(Oc4ccc(C(F)(F)F)cc4)cc3)no2)cnc1O | < 10 |
| Oc1ccc(-c2nc(-c3ccc4oc5ccc(F)cc5c4c3)no2)cc1 | < 10 |
| NCc1ccc(-c2nc(-c3ccc(OC4CC4)cc3)no2)cc1 | 12 |
| Oc1ccc(-c2nc(-c3ccc(O[C@@H]4CCNC4)cc3)no2)cc1 | < 10 |
| Oc1ccc(-c2nc(-c3ccc4oc5ccccc5c4c3)no2)cc1 | < 10 |
| C#CCOc1ccc(-c2noc(-c3ccc(O)cc3)n2)cc1 | < 10 |
| FC(F)(F)c1ccc(Oc2ccc(-c3noc(-c4ccncc4)n3)cc2)cc1 | < 10 |
| CCCOc1ccc(-c2noc(-c3ccc(CN)cc3)n2)cc1 | 12 |
| COc1ccc(-c2nc(-c3ccc(OC4CCCC4)cc3)no2)cc1 | < 10 |
| NCc1ccc(-c2nc(-c3ccc(Oc4ccc(C(F)(F)F)cc4)cn3)no2)cc1 | 24 |

| Structure (SMILES) | inhibition at 45 µM [%] |
| --- | --- |
| Nc1c[nH]nc1-c1nc(-c2ccc(Oc3ccc(C(F)(F)F)cc3)cc2)no1 | < 10 |
| Oc1ccc(-c2nc(-c3ccc(OC4CCOC4)cc3)no2)cc1 (stereo not given) | < 10 |
| NCc1ccc(-c2nc(-c3ccc(OC(F)(F)F)cc3)no2)cc1 | 33 |
| Oc1ccc(-c2nc(-c3ccc(OC4CCC4)cc3)no2)cc1 | < 10 |
| COC(OC)c1ccc(-c2noc(-c3ccc(O)cc3)n2)cc1 | < 10 |
| NCc1ccc(-c2nc(-c3ccc(OC4CCCC4)cc3)no2)cc1 | 41 |
| CCCCOc1ccc(-c2noc(-c3ccc(O)cc3)n2)cc1 | < 10 |
| CC(C)Cc1ccc(-c2nc(-c3ccc(CN4CC(C(=O)O)C4)cc3)no2)cc1 | < 10 |
| FC(F)(F)c1ccc(Oc2ccc(-c3noc(-c4ccc5[nH]ccc5c4)n3)cc2)cc1 | < 10 |
| NCc1ccc(-c2nc(-c3ccc(Oc4ccc(C(F)(F)F)cc4)cc3)no2)cc1 | 41 |
| COc1ccc(-c2nc(-c3ccc(Oc4ccc(C(F)(F)F)cc4)cc3)no2)cc1OC | < 10 |
| FC(F)(F)c1ccc(Oc2ccc(-c3noc(-c4c[nH]c5ncccc45)n3)cc2)cc1 | < 10 |
| Oc1ccc(-c2nc(N3CCN(c4ccccc4)CC3)no2)cc1 | 18 |
| Nc1ccc(-c2nc(-c3ccc(Oc4ccc(C(F)(F)F)cc4)cc3)no2)cc1F | < 10 |
| FC(F)(F)c1ccc(Oc2ccc(-c3noc(-c4n[nH]cc4NC4CCCCC4)n3)cc2)cc1 | < 10 |
| CCCCOc1ccc(-c2noc(-c3ccc(CNC(=O)OC(C)(C)C)cc3)n2)cc1 | < 10 |
| COc1cc(-c2nc(-c3ccc(Oc4ccc(C(F)(F)F)cc4)cc3)no2)ccc1O | < 10 |
| FC(F)(F)c1ccc(Oc2ccc(-c3noc(-c4ccc(Br)cc4)n3)cc2)cc1 | < 10 |
| NCc1ccc(-c2nc(-c3ccc(O[C@@H]4CCNC4)cc3)no2)cc1 | < 10 |
| O=[N+]([O-])c1c[nH]c(-c2nc(-c3ccc(Oc4ccc(C(F)(F)F)cc4)cc3)no2)c1 | < 10 |
| C[C@@H](N)c1nc(-c2ccc(OC3CCCC3)cc2)no1 | < 10 |
| FC(F)(F)c1ccc(Oc2ccc(-c3noc(-c4n[nH]c5ccccc45)n3)cc2)cc1 | < 10 |
| c1nc2cc(-c3nc(-c4ccc(OC5CCCC5)cc4)no3)ccc2[nH]1 | < 10 |
| NCc1ccc(-c2nc(-c3ccnc(N4CCCC4)c3)no2)cc1 | 13 |
| O=C1C[C@H](c2nc(-c3ccc(Oc4ccc(C(F)(F)F)cc4)cc3)no2)CN1 | < 10 |

| Structure (SMILES) | inhibition at 45 µM [%] |
| --- | --- |
| FC(F)(F)c1ccc(Oc2ccc(-c3noc(-c4n[nH]cc4Br)n3)cc2)cc1 | < 10 |
| FC(F)(F)c1ccc(Oc2ccc(-c3noc(-c4n[nH]cc4I)n3)cc2)cc1 | < 10 |
| NCc1ccc(-c2nc(-c3ccc(OC4CCC4)cc3)no2)cc1 | 24 |
| FC(F)(F)c1ccc(Oc2ccc(-c3noc(-c4c[nH]cn4)n3)cc2)cc1 | < 10 |
| O=[N+]([O-])c1cc(Oc2ccc(C(F)(F)F)cc2)cnc1-c1noc(-c2ccc(O)cc2)n1 | < 10 |
| O=C(O)c1ccc(-c2nc(-c3ccc(OC4CCCC4)cc3)no2)cc1 | < 10 |
| NCc1ccc(-c2nc(-c3ccc(OC4CCCCC4)cc3)no2)cc1 | 43 |
| FC(F)(F)c1ccc(Oc2ccc(-c3noc(-c4cn[nH]c4)n3)cc2)cc1 | < 10 |
| Nc1cncc(-c2nc(-c3ccc(Oc4ccc(C(F)(F)F)cc4)cc3)no2)c1 | < 10 |
| OCC#Cc1c[nH]nc1-c1nc(-c2ccc(Oc3ccc(C(F)(F)F)cc3)cc2)no1 | < 10 |
| Oc1ccc(-c2nc(-c3ccc4c(c3)OCO4)no2)cc1 | < 10 |
| CC(C)Oc1ncc(-c2nc(-c3cccc4c3CCC4NCCC(=O)O)no2)cc1C#N (stereo not given) | < 10 |
| Oc1ccc(-c2nc(-c3ccc(Oc4ccc(C(F)(F)F)cc4)cc3)no2)cn1 | < 10 |
| Oc1ccc(-c2nc(-c3ccc(OC(F)(F)F)cc3)no2)cc1 | < 10 |
| Nc1cc(Oc2ccccc2)ccc1-c1noc(-c2ccc(O)cc2)n1 | 17 |
| NCc1ccc(-c2nc(-c3ccc(CN4CCCC4)cc3)no2)cc1 | < 10 |
| Nc1ccc(-c2noc(-c3ccc(O)cc3)n2)cc1 | < 10 |
| COc1ccc(-c2noc(-c3ccc(O)cc3)n2)cc1OC | < 10 |
| NCCCCc1nc(-c2ccc(Oc3ccc(F)cc3)cc2)no1 | < 10 |
| Nc1ccc(-c2nc(-c3ccc(OC4CCCC4)cc3)no2)cc1 | < 10 |
| NCc1ccc(-c2nc(-c3ccnc(-c4ccc(C(F)(F)F)cc4)c3)no2)cc1 | 71 |
| O=C1C[C@@H](c2nc(-c3ccc(Oc4ccc(C(F)(F)F)cc4)cc3)no2)CN1 | < 10 |
| CN1CCN(c2ccc(-c3noc(-c4ccc(O)cc4)n3)cc2)CC1 | < 10 |
| FC(F)(F)c1ccc(Oc2ccc(-c3noc(-c4cc5ccccc5[nH]4)n3)cc2)cc1 | < 10 |
| CC(C)(C)OC(=O)NCc1ccc(-c2nc(-c3ccc(OC4CCCC4)cc3)no2)cc1 | < 10 |
